The text below walks through data of patent US7589086B2, “Substituted pyrazolo[3,4-D]pyrimidines as anti-tumor agents” (Universita degli Studi di Siena, priority 2003, dated 2009).

SMILES strings stand for the structures.

Broadly, the IC50 is the midpoint of a concentration-inhibition curve. Read a high IC50 as a need for much substance.

Assay [1] relates to A431 human epidermoid carcinoma cells. The assay can be described thus: Cell proliferation assay (MTT), A431. The settings on record: compounds 0-100 μM, 72 hours, means ± SEM, NA = not active at 100 μM concentration. The class given is cell-based. The protocol:
(§1) A431 (2×10^4 cells/mL) were incubated in […] DMEM culture medium (BioWhittaker, Vallensbaek, DK). Differently, 8701-BC (2×10^4 cells/mL) were incubated in 100 μL RPMI 1640 culture medium (BioWhittaker, Vallensbaek, DK). Both cell lines were supplemented with 10% foetal calf serum (FCS; BioWhittaker, Vallensbaek, DK) and antibiotics (100 U/mL penicillin and 100 μg/mL streptomycin), at 37° C. in 5% CO2 for 8 hours, to allow adhesion. After adhesion, the medium was replaced with 100 μL medium supplemented with 0.5% FCS. After an overnight incubation, the medium was replaced and 100 μL DMEM with 10% FCS along with different concentrations (0-100 μM) of the studied compounds were added to cell cultures.
(§2) Following 72 hours, cells were treated with 10 μL of the 3-(4,5-dimethylthiazol-2-yl)-[…] (MTT) solution (5 mg/mL). Four hours later, 100 μL of propan-2-ol in a 0.04 M HCl solution were added to dissolve the formazan product. The microplates were read using an ELISA plate reader at 570 nm with a reference wavelength of 630 nm.

Assay [2] deals with 8701-BC breast cancer cells. The assay can be described thus: Cell proliferation assay (MTT), 8701-BC. The class given is cell-based, human. The settings on record: exponentially growing 8701-BC cells, compounds 0-100 μM, 72 hours, means ± SEM, NA = not active at 100 μM concentration. The protocol: as §1, §2
Assay [3] deals with T1, Src (Tyr416) (Homo sapiens, UniProt P12931).
T1 construct: subjected to immunoblot using phospho-specific antibodies against Src (Y416) and non pospho-specific Src as control; endogenous in cells; host or cells: 8701-BC breast cancer cells
T1 sequence (P12931 whole entry): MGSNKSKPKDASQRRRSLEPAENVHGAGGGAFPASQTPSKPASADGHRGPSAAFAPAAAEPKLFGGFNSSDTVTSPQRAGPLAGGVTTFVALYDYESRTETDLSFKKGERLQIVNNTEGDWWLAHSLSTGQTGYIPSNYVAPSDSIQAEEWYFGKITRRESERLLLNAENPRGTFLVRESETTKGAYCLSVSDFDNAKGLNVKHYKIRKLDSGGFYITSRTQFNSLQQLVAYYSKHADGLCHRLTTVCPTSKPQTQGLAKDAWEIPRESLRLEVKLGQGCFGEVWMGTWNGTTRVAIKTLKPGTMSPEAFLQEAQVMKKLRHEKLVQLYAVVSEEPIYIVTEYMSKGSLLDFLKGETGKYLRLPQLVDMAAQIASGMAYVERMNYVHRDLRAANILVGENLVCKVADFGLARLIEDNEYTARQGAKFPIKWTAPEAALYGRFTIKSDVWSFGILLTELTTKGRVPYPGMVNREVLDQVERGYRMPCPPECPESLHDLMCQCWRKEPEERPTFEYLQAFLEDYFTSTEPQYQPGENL
The assay can be described thus: Phospho-Src inhibition, immunoblot, 8701-BC cells after EGF stimulation. The class given is cell-based. On the procedure:
FIG. 3. […] Immunoblot analysis was performed using phospho-specific antibodies to Src (Tyr416). Filters were additionally reprobed with specific non-phospho anti-Src antibodies after stripping. Lane 1: cell control; lane 2: cells treated for 15 min with EGF (100 nM); lane 3-7: cells challenged for 3 h in the presence of 10 μM of the specified compound and then treated for 15 min with EGF (100 nM).
Immunoblot analysis was performed using phospho-specific antibodies to Src (Tyr416). Filters were additionally reprobed with specific non-phospho anti-Src antibodies after stripping.
Cells were treated as reported above but the cells were challenged with the compounds for 3 h, and then treated with 100 nM EGF (Cell Signaling Technology, MA, U.S.A.). […] later, cells were harvested and lysed in an appropriate buffer containing 1% Triton X-100. Proteins were quantitated by the BCA method (Pierce Rockford, U.S.A.). Equal amounts of total cellular protein were resolved by SDS-polyacrylamide gel electrophoresis, transferred to nitrocellulose filters and subjected to immunoblot using phospho-specific antibodies against Src (Y416) and non pospho-specific Src as control (Cell Signaling Technology, MA, U.S.A.).

Assay [4] concerns K562 cells. The assay can be described thus: Cell proliferation assay, K562. The class given is cell-based, human. The settings on record: compounds 0-100 μM, means ± SEM. The protocol: (§3) MEG-01 and K562 (2×10^4 cells/mL) were incubated in 100 μL RPMI 1640 culture medium (BioWhittaker, Vallensbaek, DK), supplemented with 10% foetal calf serum (FCS; BioWhittaker, Vallensbaek, DK) and antibiotics (100 U/mL penicillin and 100 μg/mL streptomycin), at 37° C. in 5% CO2. After an overnight incubation with 100 μL medium supplemented with 0.5% FCS, the medium was replaced and 100 μL RPMI 1640 with 10% FCS along with different concentrations (0-100 μM) of the studied compounds, were added to cell cultures.

Assay [5] relates to Meg-01 cells. The assay can be described thus: Cell proliferation assay, Meg-01. The settings on record: compounds 0-100 μM, means ± SEM. The class given is cell-based, human. On the procedure:
as §3

[6] abbreviates: 10 μM compound 3 h, then 100 nM EGF 15 min, immuno blot gel area.

As to `COc1cc2ncnc(Nc3cccc(Cl)c3)c2cc1OC` [AG1478, reference compound], half-maximal inhibition in assay [1] (IC50) required 20.2 ± 0.4 µM.

Regarding `CSc1nc(N2CCCCC2)c2cnn(CC(Cl)c3ccccc3)c2n1` (centres unmarked) [Compound 1a], the concentration for half-maximal inhibition (IC50) in assay [1] was 37.6 ± 0.8 µM; in assay [2], 67.5 ± 1.2 µM.

Consider `CSc1nc(N2CCOCC2)c2cnn(CC(Cl)c3ccccc3)c2n1` (centres unmarked) [Compound 1b], for which the IC50 in assay [1] was 26.9 ± 0.4 µM; in assay [2], 64.2 µM.

As for `CCOCCNc1nc(SC)nc2c1cnn2CC(Cl)c1ccccc1` (centres unmarked) [Compound 1c], the results for the IC50 in assay [1] and in assay [2] were 32.4 ± 0.6 µM and 59.8 ± 3.1 µM, respectively.

As to `CCCCNc1nc(SC)nc2c1cnn2CC(Cl)c1ccccc1` (centres unmarked) [Compound 1d], the 50% inhibitory concentration (IC50) in assay [1] was 27.4 ± 0.5 µM; in assay [2], 63.8 ± 2.1 µM.

Take `CSc1nc(NCc2ccccc2)c2cnn(CC(Cl)c3ccccc3)c2n1` (centres unmarked) [Compound 1e]: the results for the 50% inhibitory concentration (IC50) in assay [1] and in assay [2] were 24.6 ± 0.7 µM and 53.2 ± 1.2 µM, respectively.

With `CSc1nc(NCCc2ccccc2)c2cnn(CC(Cl)c3ccccc3)c2n1` (centres unmarked) [Compound 1f], the “Phospho-Src/Non-phospho-Src ratio (%)” value in assay [3] (10 μM compound 3 h, then 100 nM EGF 15 min, Control + EGF 56, Control 23) is recorded as 9%. Moreover, in assay [3] (setting [6]), the Non-phospho-Src amounted to 168 area units and the “Phospho-Src (Tyr416)” value is listed as 15 area units. In assay [3] (immunoblot, phospho-specific antibodies to Src (Tyr416)), the “inhibition of Src phosphorylation compared with PP2 (in words)” value is given as “inhibit Src phosphorylation better than the reference compound PP2”. In assay [1], the midpoint of inhibition, the IC50, lay at 27.1 ± 0.2 µM. For the same compound, the 50% inhibitory concentration (IC50) in assay [2] turned out to be 31.2 µM.

As for `CCCNc1nc(SC)nc2c1cnn2CC(Cl)c1ccccc1` (centres unmarked) [Compound 1g], the results for the IC50 in assay [1] and in assay [2] were 32.1 ± 0.5 µM and 64.1 ± 0.5 µM, respectively.

Consider `CCN(CC)c1nc(SC)nc2c1cnn2CC(Cl)c1ccccc1` (centres unmarked) [Compound 1h], for which the IC50 in assay [1] was determined as 70.2 ± 1.4 µM; in assay [2] it was 86.9 ± 1.2 µM.

Regarding `CSc1nc(N2CCCC2)c2cnn(CC(Cl)c3ccccc3)c2n1` (centres unmarked) [Compound 1i], the IC50 in assay [1] came out at 32.3 ± 0.8 µM; in assay [2], 56.3 ± 2 µM.

Compound `CSc1nc(N2CCCCCC2)c2cnn(CC(Cl)c3ccccc3)c2n1` (centres unmarked) [Compound 1j] registered a half-maximal inhibitory concentration (IC50) in assay [2] of 54.4 ± 0.8 µM.

Consider `CSc1nc(NC2CCCCC2)c2cnn(CC(Cl)c3ccccc3)c2n1` (centres unmarked) [Compound 1k], for which the IC50 in assay [1] was found to be 43.8 ± 0.7 µM; in assay [2], 35.3 ± 0.5 µM.

As for `CCSc1nc(N2CCOCC2)c2cnn(CC(Cl)c3ccccc3)c2n1` (centres unmarked) [Compound 2b], the IC50 in assay [1] came to 42.3 ± 0.7 µM; in assay [2], 79.8 ± 3 µM.

Take `CCCCNc1nc(SCC)nc2c1cnn2CC(Cl)c1ccccc1` (centres unmarked) [Compound 2c]: the 50% inhibitory concentration (IC50) amounted to 40.2 ± 0.4 µM in assay [1], 38.8 ± 0.5 µM in assay [2] and 27.4 ± 0.6 µM in assay [4].

Take `CCCNc1nc(SCC)nc2c1cnn2CC(Cl)c1ccccc1` (centres unmarked) [Compound 2d]: the results for the IC50 in assay [1] and in assay [2] were 79.4 ± 1.8 µM and 28.6 ± 1.6 µM, respectively.

Take `CCSc1nc(N2CCCC2)c2cnn(CC(Cl)c3ccccc3)c2n1` (centres unmarked) [Compound 2e]: the 50% inhibitory concentration (IC50) in assay [1] came out at 89.3 ± 1.7 µM; in assay [2], 72.1 ± 1.7 µM.

`CCSc1nc(NCc2ccccc2)c2cnn(CC(Cl)c3ccccc3)c2n1` (centres unmarked) [Compound 2f] had a concentration for half-maximal inhibition (IC50) in assay [2] of 42.8 ± 0.8 µM.

In turn, `OC(Cn1ncc2c(N3CCOCC3)ncnc21)c1ccccc1` (centres unmarked) [Compound 3a] came in with an IC50 in assay [1] of 86.9 ± 2.1 µM.

For `CCCCNc1ncnc2c1cnn2CC(O)c1ccccc1` (centres unmarked) [Compound 3b], in assay [1], the IC50 is 83.2 ± 1.8 µM.

As to `OC(Cn1ncc2c(N3CCCCC3)ncnc21)c1ccccc1` (centres unmarked) [Compound 3c], in assay [1], the half-maximal inhibitory concentration (IC50) was 13.4 ± 0.2 µM.

Compound `CCCNc1ncnc2c1cnn2CC(O)c1ccccc1` (centres unmarked) [Compound 3d] had an IC50 in assay [1] of 91.2 ± 1.4 µM.

In assay [1], `OC(Cn1ncc2c(NCc3ccccc3)ncnc21)c1ccccc1` (centres unmarked) [Compound 3e] displayed a half-maximal inhibitory concentration (IC50) of 12.7 ± 0.7 µM.

Regarding `OC(Cn1ncc2c(NCCc3ccccc3)ncnc21)c1ccccc1` (centres unmarked) [Compound 3f], the IC50 in assay [1] was determined as 80.1 ± 2.5 µM; in assay [2], 45.6 ± 0.5 µM.

`OC(Cn1ncc2c(NCc3ccc(F)cc3)ncnc21)c1ccccc1` (centres unmarked) [Compound 3g]: the values for the half-inhibitory concentration (IC50) in assay [1] and in assay [2] were 95.7 ± 2.3 µM and 54.4 ± 1.5 µM, respectively.

With `C(=Cn1ncc2c(N3CCCCC3)ncnc21)c1ccccc1` [Compound 4a], the IC50 in assay [1] was found to be 69.3 ± 1.2 µM.

Consider `C(=Cn1ncc2c(N3CCOCC3)ncnc21)c1ccccc1` [Compound 4b], for which the IC50 in assay [1] was determined as 59.2 ± 1 µM; in assay [2] it was 58.8 ± 0.7 µM.

Consider `CCCCNc1ncnc2c1cnn2C=Cc1ccccc1` [Compound 4c], for which the IC50 in assay [1] worked out at 91.5 ± 2 µM; in assay [2], 80.5 ± 6.8 µM.

In the case of `C(=Cn1ncc2c(N3CCCCCC3)ncnc21)c1ccccc1` [Compound 4d], the IC50 amounted to 43.6 ± 1.3 µM in assay [1] and 93.7 ± 0.6 µM in assay [2].

For `CCCNc1ncnc2c1cnn2C=Cc1ccccc1` [Compound 4e], the half-maximal inhibitory concentration (IC50) in assay [1] is 61.2 ± 1 µM; in assay [2], 57.2 ± 0.8 µM.

`CCOCCNc1ncnc2c1cnn2C=Cc1ccccc1` [Compound 4f] yielded an IC50 in assay [2] of 43.4 ± 0.4 µM.

Consider `C(=Cn1ncc2c(N3CCCC3)ncnc21)c1ccccc1` [Compound 4g], for which the results for the IC50 in assay [1] and in assay [2] were 63.1 ± 1 µM and 50.4 ± 0.1 µM, respectively.

The compound `C(=Cn1ncc2c(NC3CCCCC3)ncnc21)c1ccccc1` [Compound 4h] had an IC50 in assay [2] of 50.5 ± 1.3 µM.

Take `C(=Cn1ncc2c(NCc3ccccc3)ncnc21)c1ccccc1` [Compound 4i]: the IC50 in assay [1] is 11.7 ± 0.1 µM; in assay [2], 65 ± 0.3 µM.

In the case of `C(=Cn1ncc2c(NCCc3ccccc3)ncnc21)c1ccccc1` [Compound 4j], the IC50 is 15 ± 1.2 µM in assay [1] and 64.7 ± 0.6 µM in assay [2].

For the compound `CCSc1nc(N2CCOCC2)c2cnn(C=Cc3ccccc3)c2n1` [Compound 4k], the results for the IC50 in assay [1], in assay [4] and in assay [5] were 49.8 ± 0.8 µM, 75.1 ± 1.7 µM and 12.1 ± 1.1 µM, respectively.

In assay [1], `CSc1nc(NCc2ccccc2)c2cnn(C=Cc3ccccc3)c2n1` [Compound 4l] showed a half-maximal inhibitory concentration (IC50) of 39.8 ± 0.6 µM.

The compound `CSc1nc(N2CCCCC2)c2cnn(C=Cc3ccccc3)c2n1` [Compound 4m] had an IC50 in assay [1] of 54.1 ± 0.7 µM.

As for `CSc1nc(N2CCOCC2)c2cnn(C=Cc3ccccc3)c2n1` [Compound 4n], the concentration for half-maximal inhibition (IC50) in assay [1] is 35.7 ± 0.6 µM.

`CCCCNc1ncnc2c1cnn2CC(Br)c1ccccc1` (centres unmarked) [Compound 5d]: the IC50 came to 33.6 ± 1.2 µM in assay [1], 34.3 ± 0.9 µM in assay [4] and 19.4 ± 0.4 µM in assay [5].

For the compound `BrC(Cn1ncc2c(NC3CCCCC3)ncnc21)c1ccccc1` (centres unmarked) [Compound 5i], the values for the IC50 in assay [1], in assay [4] and in assay [5] were 28.2 ± 0.4 µM, 38.2 ± 0.8 µM and 32.7 ± 0.3 µM, respectively.
